From PMC10516623 (2023)

Assays:
[1] = test system: P1x_C26Z (DNA:RNA, riboswitch, zebularine at 26 (replaces C) of strand 1; nucleotides 1-52 RNA, 53-70 DNA; strand 2 DNA) GAUACCUGUCACAACGGCUUCCUGGCGUGACGAGGUGACCUCAGUGGAGCAAACCGCTGCCGTCGCTCCG/CGGAGCGACGGCAGCGGT; assay: smFRET titration, two-state isotherm (pre-folded); conditions: 100 mM KCl, 2 mM MgCl2, 40 mM HEPES pH 7.5, immobilised RNA, text b44 gives 41 μM
[2] = test system: PK_C18A/G49U/C50U (DNA:RNA, riboswitch, nucleotides 1-52 of strand 1 RNA, 53-70 DNA; strand 2 DNA) GAUACCUGUCACAACGGAUUCCUGGCGUGACGAGGUGACCUCAGUGGAUUAAACCGCTGCCGTCGCTCCG/CGGAGCGACGGCAGCGGT; assay: smFRET titration, two-state isotherm (pre-folded); conditions: 100 mM KCl, 2 mM MgCl2, 40 mM HEPES pH 7.5, immobilised RNA
[3] = test system: P1x_A14P (DNA:RNA, riboswitch, purine (adenine lacking N6) at 14 (replaces A) of strand 1; nucleotides 1-52 RNA, 53-70 DNA; strand 2 DNA) GAUACCUGUCACAACGGCUUCCUGGCGUGACGAGGUGACCUCAGUGGAGCAAACCGCTGCCGTCGCTCCG/CGGAGCGACGGCAGCGGT; assay: smFRET titration, two-state isotherm (pre-folded); conditions: 100 mM KCl, 2 mM MgCl2, 40 mM HEPES pH 7.5, immobilised RNA
[4] = test system: Wild-typed SAM/SAH riboswitch (Cy3-U20, 3' DNA extension, annealed to anchor DNA) (DNA:RNA, riboswitch, nucleotides 1-52 of strand 1 RNA, 53-70 DNA; strand 2 DNA) GAUACCUGUCACAACGGCUUCCUGGCGUGACGAGGUGACCUCAGUGGAGCAAACCGCTGCCGTCGCTCCG/CGGAGCGACGGCAGCGGT; assay: smFRET vectorial folding (Rep-X unwinding), two-state isotherm; conditions: 100 mM KCl, 2 mM MgCl2, 40 mM HEPES pH 7.5, 2 mM ATP, RNA released from cDNA heteroduplex, non-equilibrium
[5] = test system: T_G16P (DNA:RNA, riboswitch, purine (adenine lacking N6) at 16 (replaces G, written as G) of strand 1; nucleotides 1-52 RNA, 53-70 DNA; strand 2 DNA) GAUACCUGUCACAACGGCUUCCUGGCGUGACGAGGUGACCUCAGUGGAGCAAACCGCTGCCGTCGCTCCG/CGGAGCGACGGCAGCGGT; assay: smFRET titration, two-state isotherm (pre-folded); conditions: 100 mM KCl, 2 mM MgCl2, 40 mM HEPES pH 7.5, immobilised RNA
[6] = test system: P1x_A14C/C26U (DNA:RNA, riboswitch, nucleotides 1-52 of strand 1 RNA, 53-70 DNA; strand 2 DNA) GAUACCUGUCACACCGGCUUCCUGGUGUGACGAGGUGACCUCAGUGGAGCAAACCGCTGCCGTCGCTCCG/CGGAGCGACGGCAGCGGT; assay: smFRET titration, two-state isotherm (pre-folded); conditions: 100 mM KCl, 2 mM MgCl2, 40 mM HEPES pH 7.5, immobilised RNA
[7] = test system: Wild-typed SAM/SAH riboswitch (Cy3-U20, 3' DNA extension, annealed to anchor DNA) (DNA:RNA, riboswitch, nucleotides 1-52 of strand 1 RNA, 53-70 DNA; strand 2 DNA) GAUACCUGUCACAACGGCUUCCUGGCGUGACGAGGUGACCUCAGUGGAGCAAACCGCTGCCGTCGCTCCG/CGGAGCGACGGCAGCGGT; assay: smFRET titration, two-state isotherm (pre-folded); conditions: 100 mM KCl, 2 mM MgCl2, 40 mM HEPES pH 7.5, immobilised RNA, text b38 gives 10 μM

Kd [1]: 42 µM
Kd [2]: > 1000 µM
Kd [3]: 61 µM
apparent Kd [4]: 108 µM
Kd [5]: 607 µM
Kd [6]: 593 µM
Kd [7]: 11 µM
SMILES: C[S+](CC[C@H](N)C(=O)O)C[C@H]1O[C@@H](n2cnc3c(N)ncnc32)[C@H](O)[C@@H]1O (stereo partly shown)
